Experimental findings from US20140128402A1, “PHARMACEUTICAL COMBINATION” (IPCA Laboratories Limited, priority 2011, published 2014) are described below.

Each structure is given as a SMILES string.

The assay concerns STZ-induced diabetic rats. Description: Study No 2: biochemical parameters in STZ-induced diabetic rats. The assay is classed as in vivo, Wistar rats.
Setting [1] is: after 28 days, HCQ 22.5, VG 6, SG 0.3 mg/kg alone, HCQ+VG 22.5+6, HCQ+SG 22.5+0.3 mg/kg/day, oral.
Where [2] appears, read: after 28 days, HCQ 45, VG 12, SG 0.6 mg/kg alone, HCQ+VG 45+12, HCQ+SG 45+0.6 mg/kg/day, oral.
Setting [3] is: monotherapies, all the tested dose levels except HCQ (22.5 mg/kg), p≦0.05.

As to `CCN(CCO)CCCC(C)Nc1ccnc2cc(Cl)ccc12` (centres unmarked) [HCQ, Hydroxychloroquine], under setting [1], the HbA1c stood at 11.28 ± 1.08 %, the “Total Protein” value was determined as 6.16 ± 0.41 gm/dl and the Urea was found to be 24.68 ± 1.96 mg/dL. Further, under setting [2], the Creatinine was found to be 1.75 ± 0.29 mg/dL, the HbA1c worked out at 11.07 ± 1.22 %, the “Total Protein” value was found to be 6.35 ± 0.79 gm/dl and the Urea was determined as 23.37 ± 2.86 mg/dL. Further, the “HbA1c levels as compared to diabetic control” value (all tested doses, 28 days, p≦0.05) is recorded as “significantly (p≦0.05) reduced”. Further, the “total protein level as compared to the diabetic control group” value (monotherapies at all doses, 28 days, p≦0.05) is on record as “significant rise”. Under setting [3], the “creatinine levels as compared to diabetic control group” value was “significant reduction” and the “urea levels as compared to diabetic control group” value was “significant reduction”.
